Assays:
amphetamine deaths = assay: Amphetamine toxicity in mice; assay type: in vivo, mice (female); conditions: for ratio of number of dead animals to number of starting animals: 1 h before 15 mg/kg amphetamine, mortality at 4 h
Experimental: The test was effected on group of 10 female mice weighing between 18 and 22 g kept at 27° C for the duration of the test. The test products were intraperitoneally administered in different doses in a volume of 0.01 ml /g of mouse. One hour later, the mice received an injection of 15 mg/kg of a solution of 1.5 mg of amphetamine per ml of physiological serum. The mortality 4 hours after the amphetamine injection was determined and the results were expressed as a ratio of number of dead animals to number of starting animals.

Acute toxicity = conditions: mouse, in vivo, ip, Swiss mice, observed for a week
Experimental: The acute toxicity was determined on groups of Swiss mice weighing 18 to 22 g and the test products were administered intraperitoneally in increasing doses and the animals were kept under observation for a week.

[1] = tested on: pentamethylenetetrazol convulsions; assay: Anticonvulsant effect (pentamethylenetetrazol perfusion); assay type: in vivo, mice (female); conditions: 1 h before perfusion
Experimental: The anticonvulsant activity of the compounds was determined on groups of 10 female mice with intraperitoneal administration of the test compounds in acid solution at different doses and the control group received only the solvent. One hour after the injection, the mice were perfused with a solution of pentamethylenetetrazol in physiological serum at a concentration of 3 mg/ml. The perfusion was intraveinous at a rate of 1 ml per minute and in the course of the perfusion, the progress of introxication was characterized by the following 3 criteria:
a. Threshold of convulsant effect (myoclonia of the ears)
b. Crisis of clonic convulsions
c. Tonic convulsion with apnea and generally followed by death.

amytal sleeping time = assay: Potentialization of sleeping time (amytal); assay type: in vivo, mice (female); conditions: 1 h before 80 mg/kg amytal i.v.
Experimental: The potentialization of sleeping time was determined with a test using amytal [5-ethyl-5-isoamyl-barbituric acid] in which groups of female mice weighing between 18 and 22 g were kept at 25° C for the duration of the test. The test products were administered intraperitoneally at different doses one hour before intraveinous injection of 80 mg/kg of amytal and the sleeping time was noted which is the time while the reflux of straightening in the mice was negative.

In the case of c1ccc2c(c1)CC1NC2c2ccccc21 (stereo not drawn) [Example 1, 10,11-dihydro-5,10-imino-[5H]-dibenzo (a,d) cycloheptene dl], the “ratio of number of dead animals to number of starting animals” value (from here on “ratio of number of dead animals”) (amphetamine deaths; 1 mg/Kg i.p.) was 10/10, the “ratio of number of dead animals” value (amphetamine deaths; 2 mg/Kg i.p.) was 5/10 and the “ratio of number of dead animals” value (amphetamine deaths; 200γ/Kg i.p.) was 9/10. The “ratio of number of dead animals” value (amphetamine deaths; 500γ/Kg i.p.) was 9/10 and the LD50 at 168 h (Acute toxicity) was 150 mg/kg.
For O=C(Oc1ccccc1[N+](=O)[O-])N1C2Cc3ccccc3C1c1ccccc12 (stereo not drawn) [Example 8, 12-(o-nitrophenoxycarbonyl)-10,11-dihydro-5,10-imino-[5H]-dibenzo (a,d) cycloheptene dl], the LD50 at 168 h (Acute toxicity) was greater than 1000 mg/kg.
In the case of CP(C)(=O)CN1C2Cc3ccccc3C1c1ccccc12 (stereo not drawn) [Example 9, 12-dimethylphosphorosomethyl-10.11-dihydro-5,10-imino-[5H]-dibenzo (a,d) cycloheptene dl], the LD50 at 168 h (Acute toxicity) was 350 mg/kg.
Work on CC(=O)N1C2Cc3ccccc3C1c1ccccc12 (stereo not drawn) [Example 10, 12-acetyl-10,11-dihydro-5,10-imino-5H]-dibenzo (a,d) cycloheptene dl] yielded an LD50 at 168 h (Acute toxicity) greater than 500 mg/kg.
NC(=O)N1C2Cc3ccccc3C1c1ccccc12 (stereo not drawn) [Example 13, 12-carbamoyl-10,11-dihydro-5,10-imino-[5H]-dibenzo (a,d) cycloheptene dl] showed an LD50 at 168 h (Acute toxicity) of 1000 mg/kg.
With CN1C2Cc3ccccc3C1c1ccccc12 (stereo not drawn) [Example 15, 12-methyl-10,11-dihydro-5,10-imino-[5H]-dibenzo (a,d) cycloheptene dl] the “ratio of number of dead animals” value (amphetamine deaths; 1 mg/Kg i.p.) was 6/10, the “ratio of number of dead animals” value (amphetamine deaths; 2 mg/Kg i.p.) was 1/10 and the “ratio of number of dead animals” value (amphetamine deaths; 5 mg/Kg i.p.) was 0/10. The “ratio of number of dead animals” value (amphetamine deaths; 10 mg/Kg i.p.) was 0/10, the “ratio of number of dead animals” value (amphetamine deaths; 200γ/Kg i.p.) was 10/10 and the “ratio of number of dead animals” value (amphetamine deaths; 500γ/Kg i.p.) was 8/10. The ED50 (amphetamine deaths; Mus musculus, ip, 4 h, i.p., mice, read-out: DA50 (dose which reduced by half the amphetamine deaths)) was 1 mg/kg, the “Dose of pentamethylenetetrazol, Clonic Crisis” value (from here on “Dose … Clonic Crisis”) ([1]; 1 mg/Kg i.p.) was 44.0 mg/kg and the “Dose of pentamethylenetetrazol, Myoclonia” value (“Dose … Myoclonia” for short) ([1]; 1 mg/Kg i.p.) was 38.1 mg/kg. For the same compound, the “Dose of pentamethylenetetrazol, Tonic Crisis” value (“Dose … Tonic Crisis” for short) ([1]; 1 mg/Kg i.p.) was 182.7 mg/kg, the “Dose … Clonic Crisis” value ([1]; 2 mg/Kg i.p.) was 52.9 mg/kg and the “Dose … Myoclonia” value ([1]; 2 mg/Kg i.p.) was 46.7 mg/kg. For the same compound, the “Dose … Tonic Crisis” value ([1]; 2 mg/Kg i.p.) was 231.8 mg/kg, the “Dose … Clonic Crisis” value ([1]; 200γ/Kg i.p.) was 43.0 mg/kg and the “Dose … Myoclonia” value ([1]; 200γ/Kg i.p.) was 38.1 mg/kg. The “Dose … Tonic Crisis” value ([1]; 200γ/Kg i.p.) was 122.7 mg/kg, the “Dose … Clonic Crisis” value ([1]; 500γ/Kg i.p.) was 45.9 mg/kg and the “Dose … Myoclonia” value ([1]; 500γ/Kg i.p.) was 41.1 mg/kg. For the same compound, the “Dose … Tonic Crisis” value ([1]; 500γ/Kg i.p.) was 134.9 mg/kg, the average sleeping time (amytal sleeping time; 0.5 mg/Kg i.p.) was 33.9 min and the average sleeping time (amytal sleeping time; 1 mg/Kg i.p.) was 32.9 min. The average sleeping time (amytal sleeping time; 2 mg/Kg i.p.) was 30.6 min, the average sleeping time (amytal sleeping time; 5 mg/Kg i.p.) was 42.9 min and the average sleeping time (amytal sleeping time; 10 mg/Kg i.p.) was 78.6 min. It also gave an LD50 at 168 h (Acute toxicity) of 175 mg/kg.
In the case of C[N+]1(C)C2Cc3ccccc3C1c1ccccc12 (stereo not drawn) [Example 16, 12-methyl-10,11-dihydro-5,10-imino-[5H]-dibenzo (a,d) cycloheptene dl iodomethylate], the LD50 at 168 h (Acute toxicity) was greater than 200 mg/kg.
For CCOC(=O)N1C2Cc3ccccc3C1c1ccccc12 (stereo not drawn) [Example 17, 12-carbethoxy-10,11-dihydro-5,10imino-[5H]-dibenzo (a,d) cycloheptene dl], the LD50 at 168 h (Acute toxicity) was 1000 mg/kg.
For C=CCN1C2Cc3ccccc3C1c1ccccc12 (stereo not drawn) [Example 19, 12-allyl-10,11-dihydro-5,10-imino-[5H]-dibenzo (a,d) cyclo-heptene dl], the “Dose … Clonic Crisis” value ([1]; 2 mg/Kg i.p.) was 50.0 mg/kg, the “Dose … Myoclonia” value ([1]; 2 mg/Kg i.p.) was 44.8 mg/kg and the “Dose … Tonic Crisis” value ([1]; 2 mg/Kg i.p.) was 150.8 mg/kg. The “Dose … Clonic Crisis” value ([1]; 5 mg/Kg i.p.) was 49.8 mg/kg, the “Dose … Myoclonia” value ([1]; 5 mg/Kg i.p.) was 44.5 mg/kg and the “Dose … Tonic Crisis” value ([1]; 5 mg/Kg i.p.) was 136.0 mg/kg. For the same compound, the “Dose … Clonic Crisis” value ([1]; 10 mg/Kg i.p.) was 52.4 mg/kg, the “Dose … Myoclonia” value ([1]; 10 mg/Kg i.p.) was 47.4 mg/kg and the “Dose … Tonic Crisis” value ([1]; 10 mg/Kg i.p.) was 241.9 mg/kg. The “Dose … Clonic Crisis” value ([1]; 20 mg/Kg i.p.) was 54.7 mg/kg, the “Dose … Myoclonia” value ([1]; 20 mg/Kg i.p.) was 49.2 mg/kg and the “Dose … Tonic Crisis” value ([1]; 20 mg/Kg i.p.) was 271.8 mg/kg. For the same compound, the average sleeping time (amytal sleeping time; 2 mg/Kg i.p.) was 37.1 min, the average sleeping time (amytal sleeping time; 5 mg/Kg i.p.) was 65.1 min and the average sleeping time (amytal sleeping time; 10 mg/Kg i.p.) was 71.7 min. It also gave an average sleeping time (amytal sleeping time; 20 mg/Kg i.p.) greater than 120 min and an LD50 at 168 h (Acute toxicity) of 350 mg/kg.
For C#CCN1C2Cc3ccccc3C1c1ccccc12 (stereo not drawn) [Example 20, 12-propargyl-10,11-dihydro-5,10-imino-[5H]-dibenzo (a,d) cycloheptene dl], the “ratio of number of dead animals” value (amphetamine deaths; 2 mg/Kg i.p.) was 9/10, the “ratio of number of dead animals” value (amphetamine deaths; 5 mg/Kg i.p.) was 9/10 and the “ratio of number of dead animals” value (amphetamine deaths; 10 mg/Kg i.p.) was 7/10. The “ratio of number of dead animals” value (amphetamine deaths; 20 mg/Kg i.p.) was 1/10, the “Dose … Clonic Crisis” value ([1]; 0.5 mg/Kg i.p.) was 49.1 mg/kg and the “Dose … Myoclonia” value ([1]; 0.5 mg/Kg i.p.) was 44.2 mg/kg. The “Dose … Tonic Crisis” value ([1]; 0.5 mg/Kg i.p.) was 140.7 mg/kg, the “Dose … Clonic Crisis” value ([1]; 1 mg/Kg i.p.) was 46.7 mg/kg and the “Dose … Myoclonia” value ([1]; 1 mg/Kg i.p.) was 41.9 mg/kg. The “Dose … Tonic Crisis” value ([1]; 1 mg/Kg i.p.) was 146.4 mg/kg, the “Dose … Clonic Crisis” value ([1]; 2 mg/Kg i.p.) was 46.2 mg/kg and the “Dose … Myoclonia” value ([1]; 2 mg/Kg i.p.) was 41.2 mg/kg. For the same compound, the “Dose … Tonic Crisis” value ([1]; 2 mg/Kg i.p.) was 168.5 mg/kg, the “Dose … Clonic Crisis” value ([1]; 5 mg/Kg i.p.) was 49.0 mg/kg and the “Dose … Myoclonia” value ([1]; 5 mg/Kg i.p.) was 43.9 mg/kg. The “Dose … Tonic Crisis” value ([1]; 5 mg/Kg i.p.) was 221.7 mg/kg, the average sleeping time (amytal sleeping time; 0.5 mg/Kg i.p.) was 41.8 min and the average sleeping time (amytal sleeping time; 1 mg/Kg i.p.) was 46.5 min. For the same compound, the average sleeping time (amytal sleeping time; 2 mg/Kg i.p.) was 49.4 min and the average sleeping time (amytal sleeping time; 5 mg/Kg i.p.) was 64.9 min.
Compound c1ccc(CN2C3Cc4ccccc4C2c2ccccc23)cc1 (stereo not drawn) [Example 23, 12-benzyl-10,11-dihydro-5,10-imino-[5H]-dibenzo (a,d) cycloheptene dl] has an LD50 at 168 h (Acute toxicity) greater than 400 mg/kg.
With CCCN1C2Cc3ccccc3C1c1ccccc12 (stereo not drawn) [Example 24, 12-n-propyl-10,11-dihydro-5,10-imino[5H]-dibenzo (a,d) cycloheptene dl] the “ratio of number of dead animals” value (amphetamine deaths; 5 mg/Kg i.p.) was 10/10, the “ratio of number of dead animals” value (amphetamine deaths; 10 mg/Kg i.p.) was 9/10 and the “ratio of number of dead animals” value (amphetamine deaths; 20 mg/Kg i.p.) was 3/10. The “Dose … Clonic Crisis” value ([1]; 1 mg/Kg i.p.) was 61.8 mg/kg, the “Dose … Myoclonia” value ([1]; 1 mg/Kg i.p.) was 54.2 mg/kg and the “Dose … Tonic Crisis” value ([1]; 1 mg/Kg i.p.) was 170.3 mg/kg. For the same compound, the “Dose … Clonic Crisis” value ([1]; 2 mg/Kg i.p.) was 57.3 mg/kg, the “Dose … Myoclonia” value ([1]; 2 mg/Kg i.p.) was 50.4 mg/kg and the “Dose … Tonic Crisis” value ([1]; 2 mg/Kg i.p.) was 225.8 mg/kg. For the same compound, the “Dose … Clonic Crisis” value ([1]; 5 mg/Kg i.p.) was 60.0 mg/kg, the “Dose … Myoclonia” value ([1]; 5 mg/Kg i.p.) was 51.4 mg/kg and the “Dose … Tonic Crisis” value ([1]; 5 mg/Kg i.p.) was 265.2 mg/kg. The “Dose … Clonic Crisis” value ([1]; 10 mg/Kg i.p.) was 78.4 mg/kg, the “Dose … Myoclonia” value ([1]; 10 mg/Kg i.p.) was 57.7 mg/kg and the “Dose … Tonic Crisis” value ([1]; 10 mg/Kg i.p.) was 275.9 mg/kg. For the same compound, the average sleeping time (amytal sleeping time; 2 mg/Kg i.p.) was 38.6 min, the average sleeping time (amytal sleeping time; 5 mg/Kg i.p.) was 42.2 min and the average sleeping time (amytal sleeping time; 10 mg/Kg i.p.) was 65.1 min. For the same compound, the average sleeping time (amytal sleeping time; 20 mg/Kg i.p.) was 103.7 min and the LD50 at 168 h (Acute toxicity) was roughly 250 mg/kg.
For CNCC(=O)N1C2Cc3ccccc3C1c1ccccc12 (stereo not drawn) [Example 25, 12-(methylaminoacetyl)-10,11-dihydro-5,10-imino-[5H]-dibenzo (a,d) cycloheptene dl], the LD50 at 168 h (Acute toxicity) was roughly 300 mg/kg.
